Each compound was assayed against human PAD4 (hPAD4) (Homo sapiens (Human), UniProt Q9UM07) (assay: RFMS Human PAD4 Functional Assay). Settings: rapid-fire mass spectrum (RFMS) assay; 5 nM hPAD4 enzyme, 250 μM BAEE, 30 min preincubation at 37° C.
Type: biochemical

Chain of human PAD4 (hPAD4) (Q9UM07 whole entry): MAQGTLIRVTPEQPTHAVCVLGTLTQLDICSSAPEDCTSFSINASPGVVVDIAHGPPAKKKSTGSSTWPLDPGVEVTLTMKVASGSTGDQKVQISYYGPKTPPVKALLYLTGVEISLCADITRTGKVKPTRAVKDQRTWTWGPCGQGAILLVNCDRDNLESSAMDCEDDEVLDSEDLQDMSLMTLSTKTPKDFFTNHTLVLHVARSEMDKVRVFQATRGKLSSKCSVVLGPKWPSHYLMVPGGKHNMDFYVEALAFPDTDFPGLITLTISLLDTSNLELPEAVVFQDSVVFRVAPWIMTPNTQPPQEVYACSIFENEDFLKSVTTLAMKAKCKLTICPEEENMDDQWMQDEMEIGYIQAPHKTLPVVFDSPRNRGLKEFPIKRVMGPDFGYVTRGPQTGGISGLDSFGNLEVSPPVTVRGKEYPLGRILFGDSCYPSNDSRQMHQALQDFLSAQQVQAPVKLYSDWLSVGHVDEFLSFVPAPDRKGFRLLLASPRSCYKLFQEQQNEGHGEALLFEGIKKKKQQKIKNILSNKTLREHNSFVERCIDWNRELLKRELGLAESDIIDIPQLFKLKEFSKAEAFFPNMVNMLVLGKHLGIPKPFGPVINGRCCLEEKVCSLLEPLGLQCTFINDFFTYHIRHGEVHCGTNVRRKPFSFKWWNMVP

| IC50 [nM] | Compound |
| --- | --- |
| 88 | COc1cc(C(=O)N2C[C@H]3CC[C@@H]2[C@@H]3N)cc2nc3n(c12)Cc1cccc(c1)[C@H](O)[C@H](O)CCCCn1c-3cc2cccnc21 (relative stereo) [Example 47, ((1R,4R,7R)-7-amino-2-azabicyclo[2.2.1]heptan-2-yl)((5S,6R)-5,6-dihydroxy-27-methoxy-1^1H,2^1H-1,2(2,1)-dipyrrolo[2,3-b]pyridina-4(1,3)-benzenacyclodecaphane-25-yl)methanone] |
| 92 | COc1cc(C(=O)N2C[C@H]3CC[C@@H]2[C@@H]3N)cc2nc3n(c12)Cc1cccc(c1)[C@H](O)[C@H](O)CCCCn1c-3cc2cccnc21 (relative stereo) [Example 48, ((1R,4R,7R)-7-amino-2-azabicyclo[2.2.1]heptan-2-yl)((5S,6R)-5,6-dihydroxy-27-methoxy-1^1H,2^1H-1,2(2,1)-dipyrrolo[2,3-b]pyridina-4(1,3)-benzenacyclodecaphane-25-yl)methanone] |
| 19 | COc1cc(C(=O)N2C[C@H]3CC[C@@H]2[C@@H]3N)cc2nc3n(c12)CC1CC(=O)N(C1)c1ccccc1CCCCn1c-3cc2cccnc21 (single isomer, unassigned) [Example 37] |
| 78 | COc1cc(C(=O)N2C[C@H]3CC[C@@H]2[C@@H]3N)cc2nc3n(c12)CC1CC(=O)N(C1)c1ccccc1CCCCn1c-3cc2cccnc21 (single isomer, unassigned) [Example 38] |
| 30.6 | COc1cc(C(=O)N2C[C@H]3CC[C@@H]2[C@@H]3N)cc2nc3n(c12)Cc1cccc(c1)[C@H](O)[C@H](O)CCCCn1c-3cc2cccnc21 (single isomer, unassigned) [Example 45] |
| 44.8 | COc1cc(C(=O)N2C[C@H]3CC[C@@H]2[C@@H]3N)cc2nc3n(c12)Cc1cccc(c1)[C@H](O)[C@H](O)CCCCn1c-3cc2cccnc21 (single isomer, unassigned) [Example 46] |
| 292 | COc1cc(C(=O)N2C[C@H](N)C[C@@H](F)C2)cc2nc3n(c12)Cc1cccc(c1)[C@H](O)[C@H](O)CCCCn1c-3cc2cccnc21 (single isomer, unassigned) [Example 49] |
| 837 | COc1cc(C(=O)N2C[C@H](N)C[C@@H](F)C2)cc2nc3n(c12)Cc1cccc(c1)[C@H](O)[C@H](O)CCCCn1c-3cc2cccnc21 (single isomer, unassigned) [Example 50] |
| 44.9 | COc1cc(C(=O)N2CC3CCC2[C@@H]3N)cc2nc3n(c12)Cc1cccc(c1)/C=C\CCCCn1c-3cc2cccnc21 (stereo in doubt) [Example 41, ((1R,4R,7R)-7-Amino-2-azabicyclo[2.2.1]heptan-2-yl)((Z)-27-methoxy-11H,21H-1,2(2,1)-dipyrrolo[2,3-b]pyridina-4(1,3)-benzenacyclodecaphan-5-en-25-yl)methanone] |
| 255 | COc1cc(C(=O)N2CC3CCC2[C@@H]3N)cc2nc3n(c12)Cc1cnn(c1)CCCCCn1c-3cc2ccccc21 (stereo partly drawn) [Example 1, ((7R)-7-Amino-2-azabicyclo[2.2.1]heptan-2-yl)((Z)-2^7-methoxy-1^1H,2^1H,4^1H-2(2,1)-benzo[d]imidazola-1(2,1)-indola-4(4,1)-pyrazolacyclononaphane-2^5-yl)methanone] |
| 1370 | COc1cc(C(=O)N2CC3CCC2[C@@H]3N)cc2nc3n(c12)Cc1cnn(c1)CCCCCCn1c-3cc2cccnc21 (stereo partly drawn) [Example 2, ((7R)-7-Amino-2-azabicyclo[2.2.1]heptan-2-yl)((Z)-2^7-methoxy-1^1H,2^1H,4^1H-1,2(2,1)-dipyrrolo[2,3-b]pyridina-4(4,1)-pyrazolacyclodecaphane-2^5-yl)methanone] |
| 19 | COc1cc(C(=O)N2C[C@H](N)C[C@@H](F)C2)cc2nc3n(c12)Cc1cnn(c1)-c1ccccc1OCCCn1c-3cc2ccccc21 [Example 3, ((3R,5R)-3-Amino-5-fluoropiperidin-1-yl)((Z)-2^7-methoxy-1^1H,2^1H,4^1H-6-oxa-2(2,1)-benzo[d]imidazola-1(2,1)-indola-4(4,1)-pyrazola-5(1,2)-benzenacyclononaphane-2^5-yl)methanone] |
| 24 | COc1cc(C(=O)N2CC3CCC2[C@@H]3N)cc2nc3n(c12)Cc1cnn(c1)CCCCCCn1c-3cc2ccccc21 (stereo partly drawn) [Example 4, ((7R)-7-amino-2-azabicyclo[2.2.1]heptan-2-yl)((Z)-2^7-methoxy-1^1H,2^1H,4^1H-2(2,1)-benzo[d]imidazola-1(2,1)-indola-4(4,1)-pyrazolacyclodecaphane-2^5-yl)methanone] |
| 37 | COc1cc(C(=O)N2C[C@H](N)C[C@@H](F)C2)cc2nc3n(c12)Cc1cnn(c1)CCCCCCCn1c-3cc2ccccc21 [Example 5, ((3R,5R)-3-amino-5-fluoropiperidin-1-yl)((Z)-2^7-methoxy-1^1H,2^1H,4^1H-2(2,1)-benzo[d]imidazola-1(2,1)-indola-4(4,1)-pyrazolacycloundecaphane-2^5-yl)methanone] |
| 31 | COc1cc(C(=O)N2CC3CCC2[C@@H]3N)cc2nc3n(c12)Cc1cnn(c1)CCCCCCCn1c-3cc2ccccc21 (stereo partly drawn) [Example 6, ((7R)-7-amino-2-azabicyclo[2.2.1]heptan-2-yl)((Z)-2^7-methoxy-1^1H,2^1H,4^1H-2(2,1)-benzo[d]imidazola-1(2,1)-indola-4(4,1)-pyrazolacycloundecaphane-2^5-yl)methanone] |
| 277 | COc1cc(C(=O)N2C[C@H](N)C[C@@H](F)C2)cc2nc3n(c12)Cc1cnn(c1)CCCCCCn1c-3cc2cccnc21 [Example 8, ((3R,5R)-3-amino-5-fluoropiperidin-1-yl)((Z)-2^7-methoxy-1^1H,2^1H,4^1H-1,2(2,1)-dipyrrolo[2,3-b]pyridina-4(4,1)-pyrazolacyclodecaphane-2^5-yl)methanone] |
| 612 | COc1cc(C(=O)N2C[C@H](N)C[C@@H](F)C2)cc2nc3n(c12)Cc1cnn(c1)CCCCCCCn1c-3cc2cccnc21 [Example 9, ((3R,5R)-3-amino-5-fluoropiperidin-1-yl)((Z)-2^7-methoxy-1^1H,2^1H,4^1H-1,2(2,1)-dipyrrolo[2,3-b]pyridina-4(4,1)-pyrazolacycloundecaphane-2^5-yl)methanone] |
| 137 | COc1cc(C(=O)N2CC3CCC2[C@@H]3N)cc2nc3n(c12)Cc1cnn(c1)CCCCCCCn1c-3cc2cccnc21 (stereo partly drawn) [Example 10, ((7R)-7-amino-2-azabicyclo[2.2.1]heptan-2-yl)((Z)-2^7-methoxy-1^1H,2^1H,4^1H-1,2(2,1)-dipyrrolo[2,3-b]pyridina-4(4,1)-pyrazolacycloundecaphane-2^5-yl)methanone] |
| 18800 | COc1cc(C(=O)N2CCC[C@@H](N)C2)cc2nc3n(c12)Cc1cnn(c1)CCCCCCn1c-3cc2cccnc21 [Example 11, ((R)-3-aminopiperidin-1-yl)((Z)-2^7-methoxy-1^1H,2^1H,4^1H-1,2(2,1)-dipyrrolo[2,3-b]pyridina-4(4,1)-pyrazolacyclodecaphane-2^5-yl)methanone] |
| 47 | COc1cc(C(=O)N2CC3CCC2[C@@H]3N)cc2nc3n(c12)Cc1cnn(c1)CCCCCCn1c-3cc2ccccc21 (stereo partly drawn) [Example 12, ((7R)-7-amino-2-azabicyclo[2.2.1]heptan-2-yl)((E)-2^7-methoxy-1^1H,2^1H,4^1H-2(2,1)-benzo[d]imidazola-1(2,1)-indola-4(3,1)-pyrazolacyclodecaphane-2^5-yl)methanone] |

From patent publication US12492202B2, “Macrocyclic PAD4 inhibitors useful as immunosuppressant” (BRISTOL-MYERS SQUIBB COMPANY, priority 2020, dated 2025)
